{
  "source": "patent US5968912A",
  "about": "“Methods for immunosuppressing” (Immune Modulation, Inc., priority 1997, dated 1999)",
  "key": {"Swiss Webster mice": {"test_system": "Swiss Webster mice", "experiment": "Single dose range-finding toxicity study in mice", "assay_type": "in vivo, mouse (Swiss Webster)", "set-up": "key to Clinical observation: Normal / Clinical observation: Vocalization / Clinical observation: Slow breathing / Clinical observation: Hypoactive / Clinical observation: FPSR / Clinical observation: Cool to touch / Clinical observation: Hypoactivity: Observations are recorded as present (x); not observed (--)", "experimental": "(§1) Single dose range-finding study of HE-33 in mice\n(§2) Swiss Webster mice (Charles River Laboratories, Hollister, Calif.) were used for the preliminary toxicology study. One mouse per dose level was administered a single intravenous (IV) dose of either 1.5, 15, 75, 100, 150, 200, 300 or 400 mg of HE-33/kg body weight. The dose volume for all mice receiving saline or formulations of HE-3 3 was 10 mL/kg body weight. All doses were administered as a slow-push IV injection in the tail vein. Day 1 of the study for each mouse occurred on the day of administration of the drug or the saline.\n(§3) Clinical observations/body weights\n(§4) Each mouse was observed closely for clinical signs of toxicity at approximately 10, 30 and 60 minutes and 5 hours after dosing on Day 1, and once daily on Days 2-8. In addition, mortality checks were performed twice daily. Body weights were obtained on each mouse prior to dosing on Day 1. Body weights (Day 1) for the mice used in this study ranged between 27.3 and 32.5 g (Table 8).\n(§5) ^a Animals were dosed with saline adjusted to pH 8.55.\n(§6) ^b Observations are recorded as present (x) or not observed (--).\n(§7) ^c Additional observation was reported in the time interval closest t\n(§8) ^d FPSR = Flattened posture with or without closed eyes; animal would\n(§9) periodically have a startled response in response to or without a noise"}, "[1]": {"experiment": "Single dose range-finding toxicity study in mice", "assay_type": "in vivo, mouse (Swiss Webster)", "set-up": "key to Clinical observation: Normal / Clinical observation: Vocalization / Clinical observation: Slow breathing / Clinical observation: Hypoactive / Clinical observation: FPSR / Clinical observation: Cool to touch / Clinical observation: Hypoactivity: Observations are recorded as present (x); not observed (--)", "settings": "mouse, in vivo, single IV administration, mice", "experimental": "as §1, §2, §3, §4, §5, §6, §7, §8, §9"}, "[2]": {"test_system": "anti-CD3-induced T-cell proliferation (PBMC)", "experiment": "Anti-CD3-induced T-cell proliferation", "assay_type": "cell-based, human", "settings": "anti-CD3 1 ng/mL", "experimental": "Anti-T cell receptor (TCR)/CD3 induced T cell proliferation\nPBMC of a healthy volunteer were cultured in 96-well microtiter plates at 2×10^5 cells/well. […] Cultures were incubated for 3 days at 37° C. in a 5% CO2 incubator. Proliferative response was determined by incorporation of ^3 H-thymidine.\nAnti-CD3 mAb was used at 1 ng/mL concentration."}, "[3]": {"test_system": "Protein Kinase-C-Mediated T-cell Proliferation (PBMC)", "experiment": "PK-C-mediated T-cell proliferation (PMA + A23187)", "assay_type": "cell-based, human", "settings": "PMA 1.25 ng/mL + A23187 0.25 μM", "experimental": "Determination of the effect of HE-33 on PK-C-mediated signaling pathway\nPBMC of a healthy volunteer were cultured in 96-well microtiter plates at 2×10^5 cells/well. […] Forskolin is an agent well known to increase intacellular cAMP levels by activating adenylate cyclase. Cultures were incubated for 3 days at 37° C. in a 5% CO2 incubator. Proliferative response was determined by incorporation of ^3 H-thymidine.. The results were expressed in CPM and % inhibition of proliferation (Table 7)."}, "[4]": {"settings": "animal 3, 75 mg/kg IV, 30 min to day 8"}, "[5]": {"settings": "animal 4, 150 mg/kg IV, 10, 30, 60 min"}, "[6]": {"settings": "animal 4, 150 mg/kg IV, 5 hr to day 8"}, "[7]": {"settings": "animal 5, 300 mg/kg IV, 10 min to 5 hr"}, "[8]": {"settings": "animal 5, 300 mg/kg IV, days 2-8"}, "[9]": {"settings": "animal 11, 300 mg/kg IV, 30, 60 min"}, "[10]": {"settings": "animal 11, 300 mg/kg IV, 10 min and 5 hr to day 8"}},
  "data": [
    {"compound": "CCCN(CCC)c1ncnc2c1ncn2[C@@H]1O[C@@H]2COP(=O)(O)O[C@H]2[C@H]1O", "note": "[HE-33, N^6,N^6 -di-n-Propyl-c-AMP]", "values": [
      {"measurement": "Clinical signs of toxicity", "setting": "Swiss Webster mice; 150-400 mg/kg IV, between 10 minutes and 5 hrs after dosing on Day 1", "result": "signs of hypoactivity, flattened posture with or without closed eyes and slow breathing"},
      {"measurement": "Clinical observation: Normal", "setting": "Swiss Webster mice; animal 1, 1.5 mg/kg IV, all times 10 min to day 8", "result": "x"},
      {"measurement": "Clinical observation: Normal", "setting": "Swiss Webster mice; animal 2, 15 mg/kg IV, all times 10 min to day 8", "result": "x"},
      {"measurement": "Clinical observation: Normal", "setting": "Swiss Webster mice; animal 3, 75 mg/kg IV, 10 min", "result": "--"},
      {"measurement": "Clinical observation: Vocalization", "setting": "Swiss Webster mice; animal 3, 75 mg/kg IV, 10 min", "result": "x"},
      {"measurement": "Clinical observation: Normal", "setting": "Swiss Webster mice; [4]", "result": "x"},
      {"measurement": "Clinical observation: Vocalization", "setting": "Swiss Webster mice; [4]", "result": "--"},
      {"measurement": "Clinical observation: FPSR", "setting": "Swiss Webster mice; [5]", "result": "x"},
      {"measurement": "Clinical observation: Hypoactive", "setting": "Swiss Webster mice; [5]", "result": "x"},
      {"measurement": "Clinical observation: Normal", "setting": "Swiss Webster mice; [5]", "result": "--"},
      {"measurement": "Clinical observation: Slow breathing", "setting": "Swiss Webster mice; [5]", "result": "x"},
      {"measurement": "Clinical observation: FPSR", "setting": "Swiss Webster mice; [6]", "result": "--"},
      {"measurement": "Clinical observation: Hypoactive", "setting": "Swiss Webster mice; [6]", "result": "--"},
      {"measurement": "Clinical observation: Normal", "setting": "Swiss Webster mice; [6]", "result": "x"},
      {"measurement": "Clinical observation: Slow breathing", "setting": "Swiss Webster mice; [6]", "result": "--"},
      {"measurement": "Clinical observation: FPSR", "setting": "Swiss Webster mice; animal 5, 300 mg/kg IV, 10, 30, 60 min", "result": "x"},
      {"measurement": "Clinical observation: Cool to touch", "setting": "Swiss Webster mice; animal 5, 300 mg/kg IV, 10, 30, 60 min and days 2-8", "result": "--"},
      {"measurement": "Clinical observation: Hypoactivity", "setting": "Swiss Webster mice; [7]", "result": "x"},
      {"measurement": "Clinical observation: Normal", "setting": "Swiss Webster mice; [7]", "result": "--"},
      {"measurement": "Clinical observation: Slow breathing", "setting": "Swiss Webster mice; [7]", "result": "x"},
      {"measurement": "Clinical observation: Cool to touch", "setting": "Swiss Webster mice; animal 5, 300 mg/kg IV, 5 hr", "result": "x"},
      {"measurement": "Clinical observation: FPSR", "setting": "Swiss Webster mice; animal 5, 300 mg/kg IV, 5 hr to day 8", "result": "--"},
      {"measurement": "Clinical observation: Hypoactivity", "setting": "Swiss Webster mice; [8]", "result": "--"},
      {"measurement": "Clinical observation: Normal", "setting": "Swiss Webster mice; [8]", "result": "x"},
      {"measurement": "Clinical observation: Slow breathing", "setting": "Swiss Webster mice; [8]", "result": "--"},
      {"measurement": "Clinical observation: Normal", "setting": "Swiss Webster mice; animal 8, 100 mg/kg IV, all times 10 min to day 8", "result": "x"},
      {"measurement": "Clinical observation: Normal", "setting": "Swiss Webster mice; animal 9, 200 mg/kg IV, all times 10 min to day 8", "result": "x"},
      {"measurement": "Clinical observation: Normal", "setting": "Swiss Webster mice; animal 10, 200 mg/kg IV, all times 10 min to day 8", "result": "x"},
      {"measurement": "Clinical observation: FPSR", "setting": "Swiss Webster mice; [9]", "result": "x"},
      {"measurement": "Clinical observation: Hypoactivity", "setting": "Swiss Webster mice; [9]", "result": "x"},
      {"measurement": "Clinical observation: Normal", "setting": "Swiss Webster mice; [9]", "result": "--"},
      {"measurement": "Clinical observation: Slow breathing", "setting": "Swiss Webster mice; [9]", "result": "x"},
      {"measurement": "Clinical observation: FPSR", "setting": "Swiss Webster mice; [10]", "result": "--"},
      {"measurement": "Clinical observation: Hypoactivity", "setting": "Swiss Webster mice; [10]", "result": "--"},
      {"measurement": "Clinical observation: Normal", "setting": "Swiss Webster mice; [10]", "result": "x"},
      {"measurement": "Clinical observation: Slow breathing", "setting": "Swiss Webster mice; [10]", "result": "--"},
      {"measurement": "Clinical observation: Slow breathing", "setting": "Swiss Webster mice; animal 12, 400 mg/kg IV, 10, 30, 60 min and days 2-8", "result": "--"},
      {"measurement": "Clinical observation: FPSR", "setting": "Swiss Webster mice; animal 12, 400 mg/kg IV, 10 min", "result": "--"},
      {"measurement": "Clinical observation: Normal", "setting": "Swiss Webster mice; animal 12, 400 mg/kg IV, 10 min and days 2-8", "result": "x"},
      {"measurement": "Clinical observation: FPSR", "setting": "Swiss Webster mice; animal 12, 400 mg/kg IV, 30 min", "result": "x"},
      {"measurement": "Clinical observation: Normal", "setting": "Swiss Webster mice; animal 12, 400 mg/kg IV, 30 min, 60 min, 5 hr", "result": "--"},
      {"measurement": "Clinical observation: FPSR", "setting": "Swiss Webster mice; animal 12, 400 mg/kg IV, 60 min, 5 hr", "result": "x"},
      {"measurement": "Clinical observation: Slow breathing", "setting": "Swiss Webster mice; animal 12, 400 mg/kg IV, 5 hr", "result": "x"},
      {"measurement": "Clinical observation: FPSR", "setting": "Swiss Webster mice; animal 12, 400 mg/kg IV, days 2-8", "result": "--"},
      {"measurement": "Condition after Day 1", "setting": "Swiss Webster mice; drug-treated groups, Days 2 to 8", "result": "normal between Days 2 and 8"},
      {"measurement": "Survival for the duration of the study", "setting": "Swiss Webster mice; single IV 1.5-400 mg/kg, 8 days", "result": "All mice survived for the duration of the study"},
      {"measurement": "No-effect level (NOEL)", "setting": "[1]", "result": 100, "unit": "mg/kg"},
      {"measurement": "MTD", "setting": "[1]; read-out: maximum tolerated dose (MTD)", "result": "≥ 400", "unit": "mg/kg"},
      {"measurement": "Proliferation", "setting": "[2]; 10 μM", "result": 289, "unit": "CPM"},
      {"measurement": "Proliferation", "setting": "[2]; 100 μM", "result": 43, "unit": "CPM"},
      {"measurement": "inhibition at 10 µM", "setting": "[2]; Homo sapiens, T-cell, 10 μM", "result": 77, "unit": "%"},
      {"measurement": "inhibition at 100 µM", "setting": "[2]; Homo sapiens, T-cell, 100 μM", "result": 97, "unit": "%"},
      {"measurement": "Proliferation", "setting": "[3]; 100 μM", "result": 31, "unit": "CPM"},
      {"measurement": "inhibition at 100 µM", "setting": "[3]; Homo sapiens, T-cell", "result": 97, "unit": "%"}
    ]}
  ]
}
